Test results taken from publication PMC6430500, “3-Fluoro-4-hydroxyprolines: Synthesis, Conformational Analysis, and Stereoselective Recognition by the VHL E3 Ubiquitin Ligase for Targeted Protein Degradation” (Journal of the American Chemical Society, 2018).
Read-outs that look alike come from different tables or passages of the source. Marks after values point to notes of the source that are not given here. *1 amine or outer side, *2 acyl side, *3 side chain or, on linkers, in order; H or OH if unused. Where a SMILES comes first, the peptide text is derived from it. [ ]: non-standard residue; d: D form. X1 = O=C([C@@H]1[C@@H](F)[C@@H](O)CN1[*:1])[*:2]; X2 = O=C([C@@H]1[C@H](F)[C@@H](O)CN1[*:1])[*:2]

What was measured:
[1] = target: T1, VBC (VHL, elongin B, elongin C) (Homo sapiens, UniProt P40337); experiment: ITC of peptides and ligands against VBC; assay type: binding; conditions: for Kd / ΔG / ΔH / –TΔS: ITC, 25°C; for Kd: mean ± s.e.m.; for fold difference in binding affinity compared to VH032: relative to VH032 Kd
T1 construct: VHL (54–213), ElonginC (17–112) and; His6 (N, cleaved yes); made in house; host or cells: Escherichia coli BL21(DE3)

[2] = Intrinsic clearance in mouse liver microsomes; assay type: in vitro ADME; conditions: 0.5 µM
Protocol: (§1) Test compound (10 µM) was incubated in pre-warmed plasma at 37 ᵒC (that is buffered to pH 7.4 in ratio of 70:30 plasma to buffer). Immediately, at time zero, then at 30, 60, 120, and 180 min, a 50 µL aliquot of the incubation mixture was removed and mixed with 200 µL acetonitrile containing Donepezil as the internal standard (50 ng/ml) to stop the reaction. The samples were centrifuged to sediment the precipitated protein and the plates then sealed prior to UPLC-MS/MS analysis using a Quattro Premier XE (Waters Corporation, USA).
(§2) XLfit (IDBS, UK) was used to calculate the exponential decay and consequently the rate constant (k) from the ratio of peak area of test compound to internal standard at each time point. The half-life was calculated for each test compound from the rate by using the following calculation:
(§3) Test compound (0.5 µM) was incubated with female CD1 mouse liver microsomes (Xenotech LLC TM; 0.5 mg/mL in 50mM potassium phosphate buffer, pH 7.4) and the reaction started with addition of excess NADPH (8 mg/mL 50 mM potassium phosphate buffer, pH 7.4). […]
(§4) from the ratio of peak area of test compound to internal standard at each time point. The rate of intrinsic clearance (CLi) of each test compound was then calculated using the following calculation: […]

Plasma stability = assay type: in vitro ADME; conditions: 37 °C, pH 7.4, read-out: plasma stability T1/2
Protocol: as §1, §2, §3, §4

[3] = Parallel artificial membrane permeability assay (PAMPA); assay type: in vitro ADME; conditions: pH 7.4, 10 µM
Protocol: Parallel Artificial Membrane Permeability Assay (PAMPA)
PAMPA was performed using a 96-well pre-coated BD Gentest™ PAMPA plate (BD Biosciences, U.K.). Each well was divided into two chambers; donor and acceptor, separated by a lipid-oil-lipid tri-layer constructed in a porous filter. The effective permeability, Pe, of the compound was measured at pH 7.4. Stock solutions (5 mM) of the compound were prepared in DMSO. The compound was then further diluted to 10 µM in phosphate buffered saline at pH 7.4. The final DMSO concentration did not exceed 5% v/v. The compound dissolved in phosphate buffered saline was then added to the donor side of the membrane and phosphate buffered saline without compound was added to the acceptor side. The PAMPA plate was left at room temperature for 5 h. After which time, an aliquot (100 µl) was then removed from both acceptor and donor compartments and mixed with acetonitrile (80 µl) containing an internal standard. The samples were centrifuged (10 min, 5 °C, 3270 g) to sediment precipitated protein and sealed prior to UPLC-MS/MS analysis using a Quattro Premier XE (Waters Corp, USA). Pe was calculated as shown in the below equation: […]
C D(t)= peak area of compound present in donor well at time t = 18000 s Recovery of compound from donor and acceptor wells was calculated and data was only accepted when recovery exceeded 70%.

CHI Log D determination = assay type: physicochemical; conditions: reversed-phase HPLC, Phenomenex Luna C18 column, pH 7.4; read-out: CHI LogD7.4
Protocol: Using a fast gradient, reverse-phase HPLC method to determine the chromatographic hydrophobicity index (CHI) was determined as described by Camurri and Zaramella (ref. 26) and Valko et al. (ref. 27).
Briefly, by plotting the retention time of a set of reference compounds against known CHI values. The CHI value of test compounds was then calculated according to their retention time.
Test compounds were prepared as 0.5 mM solutions in 50:50 acetonitrile:water and analysed by reversed-phase HPLC-UV (wavelength 254 nm) using a Phenomenex Luna C18 100Å 150 x 4.6mm 5 micron column with a gradient of aqueous phase (50 mM ammonium acetate, pH 7.4) and mobile

MV4;11 cells = experiment: CellTiter-Glo cell viability assay; assay type: cell-based; conditions: for EC50: MV4-11, 72 h
Protocol: MV4;11 cells (15000 cells per well) were dosed for 72 h with compounds serially diluted (1:3) on a clear-bottom 384-well plate with a final concentration of 0.05% (v/v) DMSO. After treatment, Promega CellTiter-Glo luminescent cell viability assay (G7572) was added to the cells according to the manufacturer instructions. The signal from each well was recorded on a BM G Labtech Pherastar luminescence plate reader with recommended settings.
Normalized data were analyzed and plotted with Graphpad Prism software in the ‘log(inhibitor) vs. response -- Variable slope (four parameters)’ module. EC50 values of each test compound were […]

A549 cells = experiment: A549 colony-formation assay; assay type: cell-based; conditions: 7 days, crystal violet
Protocol: A549 Colony-Formation Assay
A549 cells were seeded in clear, Nunc™ Edge 2.0 96 -w ell plates (Thermo Scientific) at 1000 cells per well and incubated at 37°C in DMEM. After 24 h cells were treated with test compounds from 10 µM to 100 nM , with a final DM SO of 0.1%. The cells were left to grow until DM SO -treated wells reached ~100% confluence (~8 days), at which point they were washed with PBS, fixed with 100% MeOH (30 min 4°C), stained with 0.1% crystal violet (30 min at r.t.) and left to dry overnight. Once dried plates were imaged on an Epson Perfection V800 scanner, at a resolution of 1200 DPI and in 48 -bit colour.
For dose-response curves, crystal-violet dye was extracted by the addition of 200 µl 1% SDS to each well, and incubation for 3 h at r.t. The absorbance at 595nm of each well was measured on a Pherastar FS (BMG), normalised for each compound and plotted against compound concentration.
(1 picture or pasted object on this page, not shown here)

[4] = design: method as in Frost et al. 40; conditions: ref Frost et al. 40; cited from earlier work
[5] = design: method as in Frost et al. 40; conditions: ref Frost et al. 40; cited from earlier work; remark: listed apart in the source
[6] = design: method as in Frost et al. 40; conditions: ref Frost et al. 40; cited from earlier work; remark: listed apart in the source

T1 sequence (P40337 54-213): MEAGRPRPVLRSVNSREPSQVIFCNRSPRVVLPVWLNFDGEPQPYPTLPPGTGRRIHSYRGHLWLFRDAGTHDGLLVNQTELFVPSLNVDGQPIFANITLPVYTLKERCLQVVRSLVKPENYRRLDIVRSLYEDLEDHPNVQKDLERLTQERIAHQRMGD
T1 sequence (Q15369 17-112 partner limits assumed): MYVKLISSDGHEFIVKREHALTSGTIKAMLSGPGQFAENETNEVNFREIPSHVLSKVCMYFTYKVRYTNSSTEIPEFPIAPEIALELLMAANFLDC
T1 sequence (Q15370 1-104 partner limits assumed): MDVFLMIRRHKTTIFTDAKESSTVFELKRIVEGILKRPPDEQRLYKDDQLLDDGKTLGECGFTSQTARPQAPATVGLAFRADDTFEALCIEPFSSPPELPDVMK

## CC[C@H](C)[C@H](NC(=O)[C@H](Cc1ccc(O)cc1)NC(=O)[C@@H]1[C@@H](F)[C@@H](O)CN1C(=O)[C@H](C)NC(=O)[C@H](CC(C)C)NC(=O)[C@H](C)NC(=O)[C@H](CCC(=O)O)NC(=O)[C@@H](N)CC(=O)O)C(=O)N1CCC[C@H]1C(=O)N[C@@H](CCSC)C(=O)N[C@@H](CC(=O)O)C(=O)N[C@@H](CC(=O)O)C(=O)N[C@@H](CC(=O)O)C(=O)N[C@@H](Cc1ccccc1)C(=O)N[C@@H](CCC(N)=O)C(=O)N[C@@H](CC(C)C)C(=O)N[C@@H](CCCNC(=N)N)C(=O)N[C@@H](CO)C(=O)N[C@@H](Cc1ccccc1)C(N)=O [13a] (H-DEALA[X1]YIPMDDDFQLRSF-NH2)
[1]
  Kd: 12 ± 2 nM

## CC[C@H](C)[C@H](NC(=O)[C@H](Cc1ccc(O)cc1)NC(=O)[C@@H]1[C@H](F)[C@@H](O)CN1C(=O)[C@H](C)NC(=O)[C@H](CC(C)C)NC(=O)[C@H](C)NC(=O)[C@H](CCC(=O)O)NC(=O)[C@@H](N)CC(=O)O)C(=O)N1CCC[C@H]1C(=O)N[C@@H](CCSC)C(=O)N[C@@H](CC(=O)O)C(=O)N[C@@H](CC(=O)O)C(=O)N[C@@H](CC(=O)O)C(=O)N[C@@H](Cc1ccccc1)C(=O)N[C@@H](CCC(N)=O)C(=O)N[C@@H](CC(C)C)C(=O)N[C@@H](CCCNC(=N)N)C(=O)N[C@@H](CO)C(=O)N[C@@H](Cc1ccccc1)C(N)=O [13b] (H-DEALA[X2]YIPMDDDFQLRSF-NH2)
[1]
  Kd: 52 ± 3 nM

## CC[C@H](C)[C@H](NC(=O)[C@H](Cc1ccc(O)cc1)NC(=O)[C@@H]1C[C@@H](O)CN1C(=O)[C@H](C)NC(=O)[C@H](CC(C)C)NC(=O)[C@H](C)NC(=O)[C@H](CCC(=O)O)NC(=O)[C@@H](N)CC(=O)O)C(=O)N1CCC[C@H]1C(=O)N[C@@H](CCSC)C(=O)N[C@@H](CC(=O)O)C(=O)N[C@@H](CC(=O)O)C(=O)N[C@@H](CC(=O)O)C(=O)N[C@@H](Cc1ccccc1)C(=O)N[C@@H](CCC(N)=O)C(=O)N[C@@H](CC(C)C)C(=O)N[C@@H](CCCNC(=N)N)C(=O)N[C@@H](CO)C(=O)N[C@@H](Cc1ccccc1)C(N)=O [13c, reference compound]
[1]
  Kd: 11 ± 1 nM

## CC(=O)N[C@H](C(=O)N1C[C@H](O)[C@H](F)[C@H]1C(=O)NCc1ccc(-c2scnc2C)cc1)C(C)(C)C [14a]
[1]
  ΔG: –9.02 ± 0.01 kcal/mol
  ΔH: –7.2 ± 0.5 kcal/mol
  –TΔS: –1.8 ± 0.5 kcal/mol
  fold difference in binding affinity compared to VH032: ≤ 2 fold
[2]
  mouse microsomal stability: <0.50 mL/min/g liver
Plasma stability
  half-life at 10 µM: > 180 min
[3]
  Papp at 5 h, 10 µM: 0.23 ×10⁻⁶ cm/s
CHI Log D determination
  chromatographic logD: 1.3

## CC(=O)N[C@H](C(=O)N1C[C@H](O)[C@@H](F)[C@H]1C(=O)NCc1ccc(-c2scnc2C)cc1)C(C)(C)C [14b]
[1]
  ΔG: –7.55 ± 0.03 kcal/mol
  ΔH: –3.9 ± 0.5 kcal/mol
  –TΔS: –3.8 ± 0.4 kcal/mol
  Kd: 3080 nM
  fold difference in binding affinity compared to VH032: ~20 fold
[2]
  mouse microsomal stability: 0.68 mL/min/g liver
Plasma stability
  half-life at 10 µM: > 180 min
[3]
  Papp at 5 h, 10 µM: 0.081 ×10⁻⁶ cm/s
CHI Log D determination
  chromatographic logD: 1.3

## Cc1ncsc1-c1ccc(CNC(=O)[C@@H]2C[C@@H](O)CN2C(=O)[C@@H](NC(=O)COCCOCCOCCNC(=O)C[C@@H]2N=C(c3ccc(Cl)cc3)c3c(sc(C)c3C)-n3c(C)nnc32)C(C)(C)C)cc1 [MZ1, reference compound]
MV4;11 cells; 72 h
  pEC50, antiproliferative activity: 7.3
MV4;11 cells; Homo sapiens, 72 h, read-out: Emax, maximal response at highest concentration
  Emax: 98%
MV4;11 cells; Homo sapiens, read-out: EC50, antiproliferative activity
  EC50: 54.7 nM
MV4;11 cells; Homo sapiens, read-out: pEC50, antiproliferative activity (converted)
  EC50: 54.7 nM
A549 cells
  effect on cell growth, colony formation (in words): profound concentration-dependent cytotoxicity

## CC(=O)N[C@H](C(=O)N1C[C@H](O)C[C@H]1C(=O)NCc1ccc(-c2scnc2C)cc1)C(C)(C)C [VH032]
[4]
  mouse microsomal stability: 0.70 ^a mL/min/g liver
[5]
  plasma stability T1/2: >180 ^a min
[6]
  CHI LogD7.4: 0.90 ^a
